Assay results from patent US7453010B2, “Phenylcyclohexylpropanolamine derivatives, preparation and therapeutic application thereof” (Sanofi Aventis, priority 2002, dated 2008).

Work on `CS(=O)(=O)Nc1cc(OC[C@@H](O)CN[C@H]2CC[C@H](c3ccc(O)cc3)CC2)ccc1O` [Compound 1, trans-N-{2-Hydroxy-5-[((2S)-2-hydroxy-3-{[4-(4-hydroxyphenyl)cyclohexyl]amino}propyl)oxy]phenyl}methanesulfonamide] yielded a melting point of 85 to 90 °C.
`CCOC(=O)COc1ccc([C@H]2CC[C@H](NC[C@H](O)COc3ccc(O)c(NS(C)(=O)=O)c3)CC2)cc1` [Compound 2, Ethyl trans-(4-{4-[((2S)-2-hydroxy-3-{4-hydroxy-3-[(methylsulfonyl)amino]phenoxy}propyl)amino]cyclohexyl}phenoxy)acetate] showed a melting point of 60 to 70 °C.
